Laboratory results: ChEMBL document CHEMBL5143711, “Glenthmycins A-M: Macrocyclic Spirotetronate Polyketide Antibacterials from the Australian Pasture Plant-Derived Streptomyces sp. CMB-PB041” (J Nat Prod, 2022)

system: Mycobacterium tuberculosis variant bovis; assay: Antibacterial activity against Mycobacterium bovis BCG ATCC 35741 incubated for 16 to 24 hrs by broth microdilution based spectrophotometric analysis; format: functional, organism-based

SMILES	IC50 [µM]
COc1cc(C)c(C(=O)O[C@H]2[C@@H](O)[C@@H](O)[C@H](O[C@H]3CC[C@H](C)[C@@H]4[C@@H]3C=C(C)[C@H]3/C(C)=C/CC/C(C)=C/[C@]5(C)C=C(C(=O)O)[C@H](C)C[C@]56OC(=O)C(=C6O)C(=O)[C@@]43C)O[C@@H]2C)c(O)c1	> 30
COc1cc(C)c(C(=O)O[C@H]2[C@H](O[C@H]3CC[C@H](C)[C@@H]4[C@@H]3C=C(C)[C@H]3/C(C)=C/CC/C(C)=C/[C@]5(C)C=C(C(=O)O)[C@H](C)C[C@]56OC(=O)C(=C6O)C(=O)[C@@]43C)O[C@H](C)[C@@H](O)[C@H]2O)c(O)c1	> 30
CC(=O)O[C@H]1CC[C@H](C)[C@@H]2[C@@H]1C=C(C)[C@H]1/C(C)=C/CC/C(C)=C/[C@]3(C)C=C(C)[C@H](C)C[C@]34OC(=O)C(=C4O)C(=O)[C@@]21C	> 30
CC1=C[C@@]2(C)/C=C(\C)CC/C=C(\C)[C@@H]3C(C)=C[C@H]4[C@@H]([C@@H](C)CC[C@@H]4O)[C@]3(C)C(=O)C3=C(O)[C@@]2(C[C@H]1C)OC3=O	> 30
COc1cc(C)c(C(=O)O[C@H]2[C@@H](O)[C@H](O[C@H]3CC[C@H](C)[C@@H]4[C@@H]3C=C(C)[C@H]3/C(C)=C/CC/C(C)=C/[C@]5(C)C=C(C(=O)O)[C@H](C)C[C@]56OC(=O)C(=C6O)C(=O)[C@@]43C)O[C@H](C)[C@H]2O)c(O)c1	> 30
COc1cc(C)c(C(=O)N[C@@H]2[C@@H](C)O[C@@H](O[C@H]3CC[C@H](C)[C@@H]4[C@@H]3C=C(C)[C@H]3/C(C)=C/CC/C(C)=C/[C@]5(C)C=C(C(=O)O)[C@H](C)C[C@]56OC(=O)C(=C6O)C(=O)[C@@]43C)[C@H](O)[C@]2(C)O)c(O)c1	> 30
COc1cc(C)c(C(=O)O[C@H]2[C@H](O[C@H]3CC[C@H](C)[C@@H]4[C@@H]3C=C(C)[C@H]3/C(C)=C/CC/C(C)=C/[C@@H]5C=C(C(=O)O)[C@H](C)C[C@]56OC(=O)C(=C6O)C(=O)[C@@]43C)O[C@H](C)[C@@H](O)[C@H]2O)c(O)c1	> 30
COc1cc(C)c(C(=O)O[C@H]2[C@@H](O)[C@@H](O)[C@H](O[C@H]3CC[C@H](C)[C@@H]4[C@@H]3C=C(C)[C@H]3/C(C)=C/CC/C(C)=C/[C@]5(C)C=C(C(=O)O)[C@H](C)C[C@]56OC(=O)C(=C6O)C(=O)[C@@]43C)O[C@@H]2C)c(OC)c1	> 30
COc1cc(C)c(C(=O)N[C@@H]2[C@@H](C)O[C@@H](O[C@H]3CC[C@H](C)[C@@H]4[C@@H]3C=C(C)[C@H]3/C(C)=C/CC/C(C)=C/[C@@H]5C=C(C(=O)O)[C@H](C)C[C@]56OC(=O)C(=C6O)C(=O)[C@@]43C)[C@H](O)[C@]2(C)O)c(O)c1	> 30
COc1cc(C)c(C(=O)O[C@H]2[C@@H](O)[C@H](O[C@H]3CC[C@H](C)[C@@H]4[C@@H]3C=C(C)[C@H]3/C(C)=C/CC/C(C)=C/[C@@H]5C=C(C(=O)O)[C@H](C)C[C@]56OC(=O)C(=C6O)C(=O)[C@@]43C)O[C@H](C)[C@H]2O)c(O)c1	> 30
COc1cc(C)c(C(=O)O[C@H]2[C@@H](O)[C@@H](O)[C@H](O[C@H]3CC[C@H](C)[C@@H]4[C@@H]3C=C(C)[C@H]3/C(C)=C/CC/C(C)=C/[C@@H]5C=C(C(=O)O)[C@H](C)C[C@]56OC(=O)C(=C6O)C(=O)[C@@]43C)O[C@@H]2C)c(O)c1	> 30
CC(=O)O[C@H]1CC[C@H](C)[C@@H]2[C@@H]1C=C(C)[C@H]1/C(C)=C/CC/C(C)=C/[C@@H]3C=C(C)[C@H](C)C[C@]34OC(=O)C(=C4O)C(=O)[C@@]21C	> 30
